# Like-named read-outs stand apart in the source and are kept apart here.
# Experiments:
# [1] = cited from earlier work
# [2] = patients with creatinine clearance >35 mL per minute; cited from earlier work
# [3] = multiphasic clearance from plasma; cited from earlier work
# follicular lymphoma = assay: Single agent rituximab therapy of follicular lymphoma, outcome by C1qA[276], CD32 and CD16 polymorphism; type: in vivo, human
# Method: A polymorphism in the C1qA component of complement correlates with prolonged complete remission following rituximab therapy of follicular lymphoma. The non-coding polymorphism at C1qA[276] was examined in 90 patients with follicular lymphoma who were treated with rituximab (single agent) to assess whether a correlation exists between this genetic polymorphism of the complement pathway and clinical effectiveness of rituximab. The presence of an A versus a G allele at the C1qA[276] locus was determined using restriction fragment length polymorphism analysis by investigators blinded to the clinical outcome of the patients. The molecular and clinical data was then analyzed according to C1qA polymorphism, including measurement of radiographic response and duration of response, using methods similar to those used to evaluate the correlation between polymorphisms in CD16/CD32 genes and clinical outcome.
# However, prolonged remission was noted among those subjects that achieved remission (either partial or complete response) for individuals who were carriers of the A allele at the C1qA[276] locus (AA or AG) compared to homozygous GG subjects. The strongest correlation was found among those subjects that achieved a complete remission to single agent rituximab. […] A allele was an independent factor for good prognosis, while FcγRIIIa 158 phenylalanine carrier and FcγRIIa 131 arginine carrier indicated poor survival. Thus, the relative risk was 0.2 for C1qA[276] AA/AG versus GG after controlling for CD32 and CD16 polymorphisms. The relative risks were 4.8 for CD32 HR versus HH and 6.16 for CD32 RR versus HH after controlling for complement and CD16 polymorphisms. The relative risks were 4.57 for CD16 VF against VV and 3.69 for CD16 FF versus VV after controlling for complement and CD32 polymorphisms.
# Raji cells = assay: Complement-mediated killing of Raji cells in the presence of rituximab and serum from genotyped donors; type: cell-based, human
# Method: FIG. 1—Percentage of live Raji cells after 72 hours incubation in the presence of rituximab and serum from donors with known C1qA[276] genotype.
# (§1) C1qA polymorphism correlates with the ability of complement to opsonize and kill target cells in the presence of therapeutic antibodies. The inventors collected and coded serum samples from 10 healthy donors previously genotyped for C1qA[276A/G] polymorphism. The sera were extensively analyzed for function of complement and ability to opsonize target cells by members of an outside collaborative research group blinded to the identity of the donors and the C1q genotype. The results from killing experiments are presented in summary in FIG. 1. The experiments were designed to determine the ability of the complement from human sera to lyse and thus limit the proliferation of Raji cells, a CD20 expressing B-cell lymphoma cell line, in the presence of rituximab, an anti-CD20 monoclonal with extensive application in clinical therapy of lymphoma. […] The inventors are currently in the process of collecting additional sera for testing. In a one-way ANOVA, p value is 0.086 at this point. Assuming future results will go with the trend observed, the ANOVA test will be in the 0.002 range if only 2 homozygous of each kind are added, and excluding the heterozygous. A better test for this type of data would be Dunn's multiple comparison test. […]
# [4] = system: C3b deposition on B-cell surface; assay: C3b opsonization of target cells in the presence of rituximab and donor serum (flow cytometry); type: cell-based, human; conditions: serum from homozygous A donors
# Excerpt: FIG. 2—Level of C3b opsonization of B-cell surface in the presence of rituximab and serum from individuals with known C1qA[276] genotype.
# as §1
compound,measurement,setting,value
Bleomycin,tissue concentration,[1]; hematopoietic tissue / bone marrow,low concentrations
same,tissue concentration,"[1]; mice, skin, lungs, kidneys, peritoneum, lymphatics",high concentrations
same,serum or plasma terminal elimination half-life,[2],approximately 115 min
CC[C@]1(O)C[C@H]2CN(CCc3c([nH]c4ccccc34)[C@@](C(=O)OC)(c3cc4c(cc3OC)N(C=O)[C@H]3[C@@](O)(C(=O)OC)[C@H](OC(C)=O)[C@]5(CC)C=CCN6CC[C@]43[C@@H]65)C2)C1 [Vincristine],terminal half-life,[3],about 24 hr
"Rituximab: monoclonal antibody that targets CD20, which is found on more than 90% of non-Hodgkin's lymphomas",difference in response rate based on C1qA polymorphisms,"follicular lymphoma; 90 follicular lymphoma patients, single agent",No statistically significant difference
same,time to progression,follicular lymphoma; C1qA[276] AA/AG subjects who achieved complete remission,830 days
same,relative risk,"follicular lymphoma; C1qA[276] AA/AG versus GG, controlling for CD32 and CD16 polymorphisms",0.2
same,time to progression,follicular lymphoma; C1qA[276] GG subjects who achieved complete remission,250 days
same,relative risk,"follicular lymphoma; CD16 FF versus VV, controlling for complement and CD32 polymorphisms",3.69
same,relative risk,"follicular lymphoma; CD16 VF against VV, controlling for complement and CD32 polymorphisms",4.57
same,relative risk,"follicular lymphoma; CD32 HR versus HH, controlling for complement and CD16 polymorphisms",4.8
same,relative risk,"follicular lymphoma; CD32 RR versus HH, controlling for complement and CD16 polymorphisms",6.16
same,HR (time to progression),"follicular lymphoma; GG versus AA/AG, complete remission group, 95% CI=2.1-96.9",4.1
same,average lysis of Raji cells,Raji cells; heterozygous sera,moderate efficiency
same,ability of serum complement to lyse Raji cells,"Raji cells; serum of homozygous C1qA[276A] donors versus homozygous G, 72 hours, p<0.04",significant decrease
same,deposition of C3b molecules on the surface of target cells,[4],least efficient

# From patent US20070191262A1, “Cancer Therapy and Prevention Based on Modulation of Complement activity” (University of Iowa Research Foundation, priority 2005, published 2007)
